Results on 27 compounds are retold here after US12668594B2, “TYK2 inhibitors and uses thereof” (Sudo Biosciences Limited, priority 2020, dated 2026).

Experiment [1] addresses T1, TYK2 (Homo sapiens, UniProt P29597). The experiment in a line: HEK-Blue IL-23 reporter assay (SEAP) for TYK2 pseudokinase inhibition. To be noted: HEK-Blue IL-23 cells, 10 ng/mL human recombinant IL-23, SEAP reporter; read-out: IL23 IC50. Format: cell-based. Also noted: HEK-Blue™ IL-23 and IFNα/β cells with a stably-integrated cytokine receptor and STAT3 or STAT1; host or cells: HEK-Blue IL-23 / HEK-Blue IFNα/β cells (HEK293 background). The method, then:
(§1) HEK-Blue™ IL-23 and IFNα/β cells with a stably-integrated cytokine receptor and STAT3 or STAT1 express STAT-inducible secreted embryonic alkaline phosphatase (SEAP) reporter gene upon cytokine stimulation. These cells are plated in DMVEM (Gibco) containing 10% heat-inactivated FBS (Gibco) and 100 U/mL PenStrep (Gibco) at 37° C. under […] conditions for 20-22 hours. The cells are then pretreated with serially diluted test compounds for 60 min prior to stimulation with either 10 ng/mL human recombinant IL-23 (Miltenyl Biotech) or 1 ng/mL human recombinant IFNα (InvivoGen) for 22-24 hours for IL-23 or 16-18 h for IFNα. SEAP induction is measured using the QUANTI Blue™ Solution (InvivoGen) according to the manufacturer's instructions. Inhibition data are calculated by comparison to no inhibitor control wells for 000 inhibition and non-stimulated control wells for 10000 inhibition. Dose response curves are generated to determine the concentration required to inhibit 5000 of cellular response (IC50) as derived by non-linear regression analysis.
(In a reporter assay the amount or activity of a reporter protein is the signal.)

Experiment [2] deals with T1, TYK2. The experiment in a line: HEK-Blue IFNα/β reporter assay (SEAP) for TYK2 pseudokinase inhibition. Format: cell-based. To be noted: HEK-Blue IFNα/β cells, 1 ng/mL human recombinant IFNα. The method, then:
as §1

pIC50: −log10 of the molar value. A value given as a limit tells only on which side of the number the result lay.

As a reminder, the pIC50 is −log10 of the IC50, conventionally taken in molar units.

T1 sequence (P29597 whole entry): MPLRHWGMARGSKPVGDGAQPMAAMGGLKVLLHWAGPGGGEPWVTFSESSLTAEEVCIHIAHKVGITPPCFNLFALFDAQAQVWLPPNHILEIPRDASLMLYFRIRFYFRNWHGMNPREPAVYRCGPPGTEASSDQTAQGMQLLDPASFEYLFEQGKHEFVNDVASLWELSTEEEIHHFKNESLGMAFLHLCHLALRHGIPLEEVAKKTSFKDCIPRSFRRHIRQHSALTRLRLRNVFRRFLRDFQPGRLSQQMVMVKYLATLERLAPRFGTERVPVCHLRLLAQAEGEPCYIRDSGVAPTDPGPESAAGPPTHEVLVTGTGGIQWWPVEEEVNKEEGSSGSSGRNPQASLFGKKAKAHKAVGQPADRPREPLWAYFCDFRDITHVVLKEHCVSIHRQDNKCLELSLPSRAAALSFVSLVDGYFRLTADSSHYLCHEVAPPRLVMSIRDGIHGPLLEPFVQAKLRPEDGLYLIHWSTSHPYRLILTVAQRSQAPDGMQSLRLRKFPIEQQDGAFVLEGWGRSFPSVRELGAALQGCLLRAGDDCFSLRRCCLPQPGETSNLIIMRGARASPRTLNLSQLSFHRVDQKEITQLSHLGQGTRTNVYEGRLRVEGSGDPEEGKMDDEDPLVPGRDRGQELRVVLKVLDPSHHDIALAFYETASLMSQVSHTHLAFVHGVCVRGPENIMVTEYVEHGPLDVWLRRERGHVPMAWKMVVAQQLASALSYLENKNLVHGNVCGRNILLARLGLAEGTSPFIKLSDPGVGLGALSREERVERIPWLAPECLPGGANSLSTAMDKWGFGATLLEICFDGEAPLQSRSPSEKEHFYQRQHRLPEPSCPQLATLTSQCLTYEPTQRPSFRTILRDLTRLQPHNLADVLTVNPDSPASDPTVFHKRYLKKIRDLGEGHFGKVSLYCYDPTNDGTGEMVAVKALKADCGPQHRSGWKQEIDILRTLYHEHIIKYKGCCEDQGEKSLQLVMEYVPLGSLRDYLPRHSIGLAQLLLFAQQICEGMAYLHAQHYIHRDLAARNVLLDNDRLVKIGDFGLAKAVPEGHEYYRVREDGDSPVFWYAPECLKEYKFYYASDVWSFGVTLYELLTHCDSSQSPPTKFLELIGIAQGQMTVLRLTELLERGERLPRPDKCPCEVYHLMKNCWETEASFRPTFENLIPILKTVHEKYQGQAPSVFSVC

On to `COc1cc(-n2[nH]c(=O)c3cnc(Nc4ccc(F)cn4)cc32)ccc1F` [Compound I-77, 1-(4-fluoro-3-methoxyphenyl)-6-((5-fluoropyridin-2-yl)amino)-1,2-dihydro-3H-pyrazolo[4,3-c]pyridin-3-one], for which the negative-log IC50 (pIC50) on TYK2 [1] and at TYK2 [2] was above 5.00 throughout.

With `CCc1ccccc1-n1[nH]c(=O)c2cnc(Nc3cc(C)nc(C)n3)cc21` [Compound I-108, 6-((2,6-dimethylpyrimidin-4-yl)amino)-1-(2-ethylphenyl)-1,2-dihydro-3H-pyrazolo[4,3-c]pyridin-3-one], the negative-log IC50 (pIC50) is above 5.00 at TYK2 [1] and 4.52 to 5.00 on TYK2 [2].

As to `Cc1cc(Nc2cc3c(cn2)c(=O)[nH]n3-c2ccc(Cl)c(Cl)c2)nc(C)n1` [Compound I-85, 1-(3,4-dichlorophenyl)-6-((2,6-dimethylpyrimidin-4-yl)amino)-1,2-dihydro-3H-pyrazolo[4,3-c]pyridin-3-one], the pIC50 at TYK2 [1] and on TYK2 [2] was below 4.05 each time.

`N#Cc1ccc(-n2[nH]c(=O)c3cnc(Nc4ccc(F)cn4)cc32)cc1` [Compound I-64, 4-(6-((5-fluoropyridin-2-yl)amino)-3-oxo-2,3-dihydro-1H-pyrazolo[4,3-c]pyridin-1-yl)benzonitrile]: the negative-log IC50 (pIC50) at TYK2 [1] and on TYK2 [2] was above 5.00 in each case.

In the case of `COc1ccc(-n2[nH]c(=O)c3cnc(NC(=O)C4CC4)cc32)cc1` [Compound I-19, N-(1-(4-methoxyphenyl)-3-oxo-2,3-dihydro-1H-pyrazolo[4,3-c]pyridin-6-yl)cyclopropanecarboxamide], the figures for the pIC50 on TYK2 [1] and at TYK2 [2] were above 5.00 and 4.52 to 5.00, respectively.

Turning to `COc1c(Cl)cccc1-n1[nH]c(=O)c2cnc(Nc3ccc(F)cn3)cc21` [Compound I-102, 1-(3-chloro-2-methoxyphenyl)-6-((5-fluoropyridin-2-yl)amino)-1,2-dihydro-3H-pyrazolo[4,3-c]pyridin-3-one], the pIC50 is 4.52 to 5.00 on TYK2 [1] and below 4.05 on TYK2 [2].

For the compound `Cc1cc(Nc2cc3c(cn2)c(=O)[nH]n3-c2ccc3cn(C)nc3c2)nc(C)n1` [Compound I-121, 6-((2,6-dimethylpyrimidin-4-yl)amino)-1-(2-methyl-2H-indazol-6-yl)-1,2-dihydro-3H-pyrazolo[4,3-c]pyridin-3-one], the negative logarithm of the IC50 (pIC50) at TYK2 [1] and at TYK2 [2] was above 5.00 in each case.

Turning to `COc1c(-n2[nH]c(=O)c3cnc(Nc4ccc(F)cn4)cc32)cccc1C(F)(F)F` [Compound I-104, 6-((5-fluoropyridin-2-yl)amino)-1-(2-methoxy-3-(trifluoromethyl)phenyl)-1,2-dihydro-3H-pyrazolo[4,3-c]pyridin-3-one], the pIC50 on TYK2 [1] and on TYK2 [2] was below 4.05 throughout.

Consider `Cn1cc2ccc(-n3[nH]c(=O)c4cnc(Nc5ccc(F)cn5)cc43)cc2n1` [Compound I-122, 6-((5-fluoropyridin-2-yl)amino)-1-(2-methyl-2H-indazol-6-yl)-1,2-dihydro-3H-pyrazolo[4,3-c]pyridin-3-one], for which the pIC50 at TYK2 [1] and on TYK2 [2] was above 5.00 each time.

Consider `Cc1cc(Nc2cc3c(cn2)c(=O)[nH]n3-c2cccc(Cl)c2)nc(C)n1` [Compound I-31, 1-(3-chlorophenyl)-6-((2,6-dimethylpyrimidin-4-yl)amino)-1,2-dihydro-3H-pyrazolo[4,3-c]pyridin-3-one], for which the pIC50 at TYK2 [1] and at TYK2 [2] was above 5.00 throughout.

For `O=C(Nc1cc2c(cn1)c(=O)[nH]n2-c1ccccc1)c1ccccn1` [Compound I-9, N-(3-oxo-1-phenyl-2,3-dihydro-1H-pyrazolo[4,3-c]pyridin-6-yl)picolinamide], the negative-log IC50 (pIC50) at TYK2 [1] and at TYK2 [2] was below 4.05 in each case.

Consider `COc1cc(-n2[nH]c(=O)c3cnc(Nc4cc(C)nc(C)n4)cc32)ccc1Cl` [Compound I-78, 1-(4-chloro-3-methoxyphenyl)-6-((2,6-dimethylpyrimidin-4-yl)amino)-1,2-dihydro-3H-pyrazolo[4,3-c]pyridin-3-one], for which the negative logarithm of the IC50 (pIC50) on TYK2 [1] and on TYK2 [2] was below 4.05 in each case.

For the compound `O=C(Nc1cc2c(cn1)c(=O)[nH]n2-c1cccc(F)c1)C1CC1` [Compound I-61, N-(1-(3-fluorophenyl)-3-oxo-2,3-dihydro-1H-pyrazolo[4,3-c]pyridin-6-yl)cyclopropanecarboxamide], the pIC50 at TYK2 [1] and on TYK2 [2] was above 5.00 in each case.

As to `COc1c(F)cccc1-n1[nH]c(=O)c2cnc(Nc3cc(C)nc(C)n3)cc21` [Compound I-99, 6-((2,6-dimethylpyrimidin-4-yl)amino)-1-(3-fluoro-2-methoxyphenyl)-1,2-dihydro-3H-pyrazolo[4,3-c]pyridin-3-one], the negative-log IC50 (pIC50) on TYK2 [1] was above 5.00; at TYK2 [2] it was 4.52 to 5.00.

Regarding `COc1cccc(-n2[nH]c(=O)c3cnc(Nc4ccnc(OC)n4)cc32)c1` [Compound I-48, 1-(3-methoxyphenyl)-6-((2-methoxypyrimidin-4-yl)amino)-1,2-dihydro-3H-pyrazolo[4,3-c]pyridin-3-one], the negative logarithm of the IC50 (pIC50) on TYK2 [1] and at TYK2 [2] was below 4.05 throughout.

With `COc1cc(-n2[nH]c(=O)c3cnc(Nc4ccc(F)cn4)cc32)ccn1` [Compound I-84, 6-((5-fluoropyridin-2-yl)amino)-1-(2-methoxypyridin-4-yl)-1,2-dihydro-3H-pyrazolo[4,3-c]pyridin-3-one], the pIC50 on TYK2 [1] and at TYK2 [2] was above 5.00 in each case.

Take `Cc1cc(Nc2cc3c(cn2)c(=O)[nH]n3-c2cccc(C(=O)NCc3ccccn3)c2)nc(C)n1` [Compound I-118, 3-(6-((2,6-dimethylpyrimidin-4-yl)amino)-3-oxo-2,3-dihydro-1H-pyrazolo[4,3-c]pyridin-1-yl)-N-(pyridin-2-ylmethyl)benzamide]: the pIC50 at TYK2 [1] is above 5.00; on TYK2 [2], below 4.05.

As to `Cc1cc(Nc2cc3c(cn2)c(=O)[nH]n3-c2ccccc2S(C)(=O)=O)nc(C)n1` [Compound I-20, 6-((2,6-dimethylpyrimidin-4-yl)amino)-1-(2-(methylsulfonyl)phenyl)-1,2-dihydro-3H-pyrazolo[4,3-c]pyridin-3-one], the negative-log IC50 (pIC50) at TYK2 [1] is 4.52 to 5.00; at TYK2 [2], 4.05 to 4.52.

`O=c1[nH]n(-c2ccc(Cl)c(Cl)c2)c2cc(Nc3ccc(F)cn3)ncc12` [Compound I-86, 1-(3,4-dichlorophenyl)-6-((5-fluoropyridin-2-yl)amino)-1,2-dihydro-3H-pyrazolo[4,3-c]pyridin-3-one]: the pIC50 on TYK2 [1] and at TYK2 [2] was below 4.05 in each case.

For `COC(=O)Nc1cc2c(cn1)c(=O)[nH]n2-c1ccccc1` [Compound I-126, methyl (3-oxo-1-phenyl-2,3-dihydro-1H-pyrazolo[4,3-c]pyridin-6-yl)carbamate], the pIC50 on TYK2 [1] was above 5.00; at TYK2 [2], below 4.05.

In the case of `COC(=O)c1ccc(-n2[nH]c(=O)c3cnc(Nc4ccc(F)cn4)cc32)cc1` [Compound I-75, methyl 4-(6-((5-fluoropyridin-2-yl)amino)-3-oxo-2,3-dihydro-1H-pyrazolo[4,3-c]pyridin-1-yl)benzoate], the pIC50 at TYK2 [1] and on TYK2 [2] was above 5.00 each time.

Consider `COc1c(-c2ncn(C)n2)cccc1-n1[nH]c(=O)c2cnc(Nc3cc(C)nc(C)n3)cc21` [Compound I-22, 6-[(2,6-dimethylpyrimidin-4-yl)amino]-1-[2-methoxy-3-(1-methyl-1H-1,2,4-triazol-3-yl)phenyl]-1H,2H,3H-pyrazolo[4,3-c]pyridin-3-one], for which the values for the pIC50 at TYK2 [1] and at TYK2 [2] were above 5.00 and 4.52 to 5.00, respectively.

Regarding `Cc1cc(Nc2cc3c(cn2)c(=O)[nH]n3-c2ccc(C(F)(F)F)cc2)nc(C)n1` [Compound I-66, 6-((2,6-dimethylpyrimidin-4-yl)amino)-1-(4-(trifluoromethyl)phenyl)-1,2-dihydro-3H-pyrazolo[4,3-c]pyridin-3-one], the pIC50 at TYK2 [1] and on TYK2 [2] was above 5.00 in each case.

Consider `O=c1[nH]n(-c2cccc(F)c2)c2cc(Nc3ccc(F)cn3)ncc12` [Compound I-60, 1-(3-fluorophenyl)-6-((5-fluoropyridin-2-yl)amino)-1,2-dihydro-3H-pyrazolo[4,3-c]pyridin-3-one], for which the pIC50 on TYK2 [1] was below 4.05; on TYK2 [2], above 5.00.

In the case of `Cc1cc(Nc2cc3c(cn2)c(=O)[nH]n3-c2cccc(C(F)(F)F)c2)ncc1F` [Compound I-29, 6-((5-fluoro-4-methylpyridin-2-yl)amino)-1-(3-(trifluoromethyl)phenyl)-1,2-dihydro-3H-pyrazolo[4,3-c]pyridin-3-one], the pIC50 on TYK2 [1] and at TYK2 [2] was above 5.00 each time.

Turning to `Cc1cc(Nc2cc3c(cn2)c(=O)[nH]n3-c2cccc(CO)c2)nc(C)n1` [Compound I-117, 6-((2,6-dimethylpyrimidin-4-yl)amino)-1-(3-(hydroxymethyl)phenyl)-1,2-dihydro-3H-pyrazolo[4,3-c]pyridin-3-one], the results for the negative logarithm of the IC50 (pIC50) at TYK2 [1] and at TYK2 [2] were above 5.00 and 4.52 to 5.00, respectively.

In the case of `COc1cccc(-n2[nH]c(=O)c3cnc(Nc4cc(C#N)ccn4)cc32)c1` [Compound I-44, 2-((1-(3-methoxyphenyl)-3-oxo-2,3-dihydro-1H-pyrazolo[4,3-c]pyridin-6-yl)amino)isonicotinonitrile], the pIC50 on TYK2 [1] and on TYK2 [2] was above 5.00 throughout.
